ChEMBL document CHEMBL4823243, “Synergistic induction of apoptosis in resistant head and neck carcinoma and leukemia by alkoxyamide-based histone deacetylase inhibitors” (Eur J Med Chem, 2021)
Active and inactive are the calls of the source. The calls are words filed in the database; no cut-off is given here.

How the values were obtained:
[1] = test system: A2780; test: Antiproliferative activity against human A2780 cells assessed as reduction in cell viability after 72 hrs by MTT assay; format: functional, cell-based; conditions: A2780, 72 h
[2] = test system: CAL-27; test: Antiproliferative activity against human CAL-27 cells assessed as reduction in cell viability after 72 hrs by MTT assay; format: functional, cell-based; conditions: CAL-27, 72 h
[3] = target: Histone deacetylase; test: Inhibition of HDAC in human CAL-27 cells using Boc-Lys (acetyl)-AMC as substrate preincubated for 18 hrs followed by susbtrate addition and measured after 3 hrs by fluorescence microplate reader assay; format: cell-based
[4] = target: Histone deacetylase; test: Inhibition of HDAC in human A2780 cells using Boc-Lys (acetyl)-AMC as substrate preincubated for 18 hrs followed by susbtrate addition and measured after 3 hrs by fluorescence microplate reader assay; format: cell-based
[5] = target: T1, Protein deacetylase HDAC6 (Homo sapiens) (UniProt Q9UBN7); test: Inhibition of HDAC6 in human CAL-27 cells assessed as accumulation of acetylated alpha-tubulin at 1 uM for 24 hrs by Western blot analysis; format: cell-based
T1 sequence (whole entry): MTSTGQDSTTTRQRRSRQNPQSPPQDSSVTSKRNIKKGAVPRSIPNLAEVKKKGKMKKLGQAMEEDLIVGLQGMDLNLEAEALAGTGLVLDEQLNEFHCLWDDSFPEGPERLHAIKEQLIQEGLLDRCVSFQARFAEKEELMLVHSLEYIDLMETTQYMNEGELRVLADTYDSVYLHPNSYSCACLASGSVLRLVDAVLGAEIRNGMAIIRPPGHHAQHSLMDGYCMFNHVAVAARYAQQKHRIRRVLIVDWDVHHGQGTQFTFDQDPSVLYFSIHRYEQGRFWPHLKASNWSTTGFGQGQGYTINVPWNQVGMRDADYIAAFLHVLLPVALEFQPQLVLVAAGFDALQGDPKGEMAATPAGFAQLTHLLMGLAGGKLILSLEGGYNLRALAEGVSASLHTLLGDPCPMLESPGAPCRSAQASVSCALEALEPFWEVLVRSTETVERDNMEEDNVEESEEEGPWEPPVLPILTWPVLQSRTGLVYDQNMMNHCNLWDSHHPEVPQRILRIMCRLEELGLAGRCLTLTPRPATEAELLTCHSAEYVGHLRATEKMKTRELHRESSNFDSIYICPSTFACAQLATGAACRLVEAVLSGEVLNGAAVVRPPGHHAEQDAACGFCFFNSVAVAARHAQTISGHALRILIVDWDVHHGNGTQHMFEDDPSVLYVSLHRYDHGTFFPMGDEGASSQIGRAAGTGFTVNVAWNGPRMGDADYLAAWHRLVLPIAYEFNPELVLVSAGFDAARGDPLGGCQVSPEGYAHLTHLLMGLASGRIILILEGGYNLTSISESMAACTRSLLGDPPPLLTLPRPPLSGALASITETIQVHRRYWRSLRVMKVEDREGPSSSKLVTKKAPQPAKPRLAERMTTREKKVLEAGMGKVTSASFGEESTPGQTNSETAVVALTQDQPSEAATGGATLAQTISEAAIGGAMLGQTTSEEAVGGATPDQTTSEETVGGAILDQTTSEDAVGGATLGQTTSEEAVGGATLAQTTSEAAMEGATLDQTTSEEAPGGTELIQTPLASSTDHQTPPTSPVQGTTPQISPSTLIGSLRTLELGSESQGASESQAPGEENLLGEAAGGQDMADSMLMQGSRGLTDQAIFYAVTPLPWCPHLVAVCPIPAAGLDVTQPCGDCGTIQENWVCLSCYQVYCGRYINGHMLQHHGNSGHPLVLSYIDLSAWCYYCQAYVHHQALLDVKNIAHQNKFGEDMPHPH

[6] = target: Histone deacetylase; test: Inhibition of HDAC in human CAL-27 cells assessed as potentiation of cisplatin-induced cytotoxicity by measuring cisplatin IC50 at 3 to 4 uM pretreated for 48 hrs followed by cisplatin addition and measured after 72 hrs by MTT assay (reference value: 3.57 uM); format: cell-based
[7] = target: Histone deacetylase 2 (Homo sapiens, UniProt Q92769); test: Inhibition of recombinant human full length C-terminal GST-fusion tagged HDAC2 expressed in baculovirus infected insect cells using Boc-Lys(Ac)-AMC as substrate preincubated for 5 mins followed by substrate addition measured after 90 mins by fluorimetry; format: cell-based
Chain of Histone deacetylase 2 (Q92769 whole entry, the tested form may be a part): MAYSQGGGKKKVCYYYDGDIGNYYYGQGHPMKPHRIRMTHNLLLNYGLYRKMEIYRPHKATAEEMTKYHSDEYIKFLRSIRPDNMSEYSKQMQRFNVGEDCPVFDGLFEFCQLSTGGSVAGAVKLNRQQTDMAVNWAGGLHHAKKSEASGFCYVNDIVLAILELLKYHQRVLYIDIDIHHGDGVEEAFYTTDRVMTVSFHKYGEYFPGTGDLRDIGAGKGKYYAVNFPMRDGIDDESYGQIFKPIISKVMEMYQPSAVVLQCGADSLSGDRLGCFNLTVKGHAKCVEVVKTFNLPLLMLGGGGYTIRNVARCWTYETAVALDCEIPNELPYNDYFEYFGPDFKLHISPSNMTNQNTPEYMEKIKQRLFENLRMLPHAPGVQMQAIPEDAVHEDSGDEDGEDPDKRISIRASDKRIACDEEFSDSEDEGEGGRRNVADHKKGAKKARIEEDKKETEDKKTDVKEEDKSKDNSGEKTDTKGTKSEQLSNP

[8] = target: Histone deacetylase 4 (Homo sapiens, UniProt P56524); test: Inhibition of recombinant human N-terminal GST-fusion tagged/C-terminal GST-tagged HDAC4 (627 to 1084 residues) expressed in baculovirus infected insect cells using Boc-Lys(TFA)-AMC as substrate preincubated for 5 mins followed by substrate addition measured after 90 mins by fluorimetry
Chain of Histone deacetylase 4 (P56524 whole entry, the tested form may be a part): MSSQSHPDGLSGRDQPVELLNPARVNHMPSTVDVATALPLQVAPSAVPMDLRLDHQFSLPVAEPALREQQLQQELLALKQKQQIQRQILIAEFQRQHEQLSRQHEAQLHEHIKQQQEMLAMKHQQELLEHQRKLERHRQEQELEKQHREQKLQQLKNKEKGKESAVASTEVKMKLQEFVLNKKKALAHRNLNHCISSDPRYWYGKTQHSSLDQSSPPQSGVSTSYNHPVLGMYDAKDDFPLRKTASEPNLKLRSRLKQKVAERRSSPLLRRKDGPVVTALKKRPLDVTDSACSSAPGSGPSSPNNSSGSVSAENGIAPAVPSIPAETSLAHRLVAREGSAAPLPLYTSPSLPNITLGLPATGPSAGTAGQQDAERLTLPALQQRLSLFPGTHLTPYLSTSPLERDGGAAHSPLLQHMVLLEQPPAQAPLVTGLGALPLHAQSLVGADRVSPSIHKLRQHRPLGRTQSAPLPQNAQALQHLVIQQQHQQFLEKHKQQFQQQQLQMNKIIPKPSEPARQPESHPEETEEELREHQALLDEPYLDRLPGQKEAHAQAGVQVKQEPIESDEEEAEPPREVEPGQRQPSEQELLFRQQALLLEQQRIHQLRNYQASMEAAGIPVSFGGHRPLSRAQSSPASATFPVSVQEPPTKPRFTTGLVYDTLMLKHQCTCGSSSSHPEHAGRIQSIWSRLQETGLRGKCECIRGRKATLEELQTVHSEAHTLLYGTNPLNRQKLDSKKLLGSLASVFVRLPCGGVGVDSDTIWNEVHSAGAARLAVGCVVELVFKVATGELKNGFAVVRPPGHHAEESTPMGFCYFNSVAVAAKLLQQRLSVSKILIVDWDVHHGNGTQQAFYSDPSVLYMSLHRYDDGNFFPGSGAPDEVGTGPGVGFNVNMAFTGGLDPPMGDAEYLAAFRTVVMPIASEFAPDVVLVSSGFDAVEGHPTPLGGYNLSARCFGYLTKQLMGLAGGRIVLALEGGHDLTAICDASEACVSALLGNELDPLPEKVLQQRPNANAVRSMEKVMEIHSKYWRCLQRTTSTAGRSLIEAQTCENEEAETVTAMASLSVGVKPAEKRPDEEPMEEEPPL

[9] = target: T2, Protein deacetylase HDAC6 (Homo sapiens, UniProt Q9UBN7); test: Inhibition of recombinant human N-terminal GST-tagged HDAC6 (1 to 1215 residues) expressed in baculovirus infected insect cells using Boc-Lys(Ac)-AMC as substrate preincubated for 5 mins followed by substrate addition measured after 90 mins by fluorimetry
T2 sequence (Q9UBN7 whole entry): T1 sequence (whole entry)

[10] = target: Histone deacetylase; test: Inhibition of HDAC in human Cal27CisR cells assessed as potentiation of cisplatin-induced cytotoxicity by measuring cisplatin IC50 at 3 to 4 uM pretreated for 48 hrs followed by cisplatin addition and measured after 72 hrs by MTT assay (reference value: 3.57 uM); format: cell-based
[11] = target: T3, Histone deacetylase (Homo sapiens) (UniProt Q13547+O15379+Q9UBN7+Q92769+Q9UQL6+Q8WUI4+Q9BY41+Q96DB2+P56524+Q9UKV0+Q969S8); test: Inhibition of HDAC in human Cal27CisR cells assessed as potentiation of cisplatin-induced cytotoxicity by measuring cisplatin IC50 at 3 to 4 uM pretreated for 48 hrs followed by cisplatin addition and measured after 72 hrs by MTT assay relative to cisplatin alone; format: cell-based; conditions: dose 3-4 µM, time 120.0 hrs
[12] = target: T4, Histone deacetylase 8 (Homo sapiens, UniProt Q9BY41); test: Inhibition of recombinant human C-terminal His-fusion tagged/N-terminal Strep2 tagged HDAC8 (1 to 377 residues) expressed in insect cells using Boc-Lys(TFA)-AMC as substrate preincubated for 5 mins followed by substrate addition measured after 90 mins by fluorimetry
T4 sequence (Q9BY41 whole entry): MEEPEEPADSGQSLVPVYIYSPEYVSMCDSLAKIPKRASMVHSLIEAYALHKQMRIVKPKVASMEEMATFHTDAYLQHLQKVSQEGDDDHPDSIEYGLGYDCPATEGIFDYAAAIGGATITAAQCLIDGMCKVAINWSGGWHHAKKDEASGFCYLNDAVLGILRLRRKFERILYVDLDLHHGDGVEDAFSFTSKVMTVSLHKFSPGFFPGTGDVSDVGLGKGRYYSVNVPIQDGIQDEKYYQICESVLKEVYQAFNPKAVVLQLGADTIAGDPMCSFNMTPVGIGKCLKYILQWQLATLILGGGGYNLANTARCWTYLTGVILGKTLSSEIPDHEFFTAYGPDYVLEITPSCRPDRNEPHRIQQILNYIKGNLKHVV

[13] = target: T3, Histone deacetylase (Homo sapiens); test: Inhibition of HDAC in human CAL-27 cells assessed as potentiation of cisplatin-induced cytotoxicity by measuring cisplatin IC50 at 3 to 4 uM pretreated for 48 hrs followed by cisplatin addition and measured after 72 hrs by MTT assay relative to cisplatin alone; format: cell-based; conditions: dose 3-4 µM, time 120.0 hrs
[14] = Inhibition of Class 1/2b HDAC in human HL-60 cells by HDAC-Glo assay; format: cell-based
[15] = test system: HL-60; test: Antiproliferative activity against human HL-60 cells assessed as reduction in cell viability for 72 hrs by Celltitre-Glo luminescent assay; format: functional, cell-based; conditions: HL-60, 72 h
[16] = target: T1, Protein deacetylase HDAC6 (Homo sapiens); test: Inhibition of HDAC6 in human CAL-27 cells assessed as accumulation of acetylated alpha-tubulin at 5 uM for 24 hrs by Western blot analysis; format: cell-based
[17] = target: Histone deacetylase; test: Inhibition of HDAC in human CAL-27 cells assessed as potentiation of cisplatin-induced cytotoxicity by measuring cisplatin IC50 at 0.3 to 0.5 uM pretreated for 48 hrs followed by cisplatin addition and measured after 72 hrs by MTT assay (reference value: 3.57 uM); format: cell-based
[18] = target: T3, Histone deacetylase (Homo sapiens); test: Inhibition of HDAC in human Cal27CisR cells assessed as potentiation of cisplatin-induced cytotoxicity by measuring fold reduction in cisplatin IC50 at 0.3 to 0.5 uM pretreated for 48 hrs followed by cisplatin addition and measured after 72 hrs by MTT assay relative to cisplatin alone; format: cell-based; conditions: dose 0.3-0.5 µM, time 120.0 hrs
[19] = target: Histone deacetylase; test: Inhibition of HDAC in human Cal27CisR cells assessed as potentiation of cisplatin-induced cytotoxicity by measuring cisplatin IC50 at 0.3 to 0.5 uM pretreated for 48 hrs followed by cisplatin addition and measured after 72 hrs by MTT assay (reference value: 3.57 uM); format: cell-based
[20] = target: T3, Histone deacetylase (Homo sapiens); test: Inhibition of HDAC in human CAL-27 cells assessed as potentiation of cisplatin-induced cytotoxicity by measuring fold reduction in cisplatin IC50 at 0.3 to 0.5 uM pretreated for 48 hrs followed by cisplatin addition and measured after 72 hrs by MTT assay relative to cisplatin alone; format: cell-based; conditions: dose 0.3-0.5 µM, time 120.0 hrs

IC50 [1] [µM] | IC50 [3] [µM] | IC50 [4] [µM] | SMILES | IC50 [2] [µM] | also measured
7.5 | 0.45 | 0.85 | O=C(CCCCCONC(=O)c1ccc2[nH]ccc2c1)NO | 1.3 | –
> 100 | 4.17 | 9.08 | O=C(CCCCCONC(=O)c1nc2ccccc2[nH]1)NO | 58.2 | –
21.8 | 3.16 | 2.7 | O=C(CCCCCONC(=O)c1nc2ccccc2s1)NO | 6.33 | –
4.88 | 2.25 | 1.58 | O=C(CCCCCONC(=O)c1cc2ccccc2s1)NO | 0.5 | –
– | – | – | Nc1ccccc1NC(=O)c1ccc(CNC(=O)OCc2cccnc2)cc1 | – | inhibition [5]: inactive
5.56 | 1.99 | 1.71 | O=C(CCCCCONC(=O)c1cc2ccccc2o1)NO | 0.78 | –
5.3 | 0.48 | 0.74 | O=C(CCCCCONC(=O)c1cccc2[nH]ccc12)NO | 1.2 | –
11.3 | 0.4 | 0.6 | O=C(CCCCCONC(=O)c1ccc2cc[nH]c2c1)NO | 4.3 | –
6.28 | 1.72 | 3.71 | O=C(CCCCCONC(=O)Cc1ccc2ccccc2c1)NO | 3.57 | –
7.7 | 0.49 | 0.19 | O=C(CCCCCONC(=O)c1cnc2ccccc2n1)NO | 0.8 | IC50 [6]: 2.9 µM; IC50 [7]: 0.044 µM; IC50 [8]: 60.8 µM; IC50 [9]: 0.018 µM; IC50 [10]: 18.7 µM; Ratio IC50 [11]: 2.6; IC50 [12]: 7.95 µM; Ratio IC50 [13]: 1.23
7.8 | 0.81 | 1.36 | O=C(CCCCCONC(=O)c1c[nH]c2ccccc12)NO | 1.7 | –
– | – | – | CC(C)(C)OC(=O)Nc1ccc(-c2cc(C(=O)NCCCCCCC(=O)NO)no2)cc1 | – | IC50 [14]: 0.109 µM; IC50 [15]: 0.594 µM
1 | 0.46 | 0.64 | O=C(CCCCCONC(=O)c1cccc2cc[nH]c12)NO | 1 | –
7.6 | 1.89 | 2.39 | O=C(CCCCCONC(=O)c1cccc2ccccc12)NO | 4.2 | –
7.6 | 0.43 | 0.71 | O=C(CCCCCONC(=O)c1[nH]nc2ccccc12)NO | 1.8 | –
– | – | – | O=C(CCCCCCNC(=O)c1cnc(N(c2ccccc2)c2ccccc2)nc1)NO [RICOLINOSTAT] | – | IC50 [14]: 0.902 µM; IC50 [15]: > 10 µM
1 | 0.1 | 0.35 | O=C(CCCCCONC(=O)c1ccc2ccccc2c1)NO | 0.18 | IC50 [7]: 0.041 µM; inhibition [16]: Active; IC50 [17]: 2.32 µM; IC50 [8]: 51.8 µM; IC50 [9]: 0.011 µM; Ratio IC50 [18]: 5.09; IC50 [12]: 3.79 µM; IC50 [19]: 9.53 µM; Ratio IC50 [20]: 1.54
70 | 5.97 | 7.68 | O=C(CCCCCONC(=O)c1ccnc2ccccc12)NO | 11.9 | –
